The source of these data is patent US6579556B2, “Ambient stable beverage” (Lipton, division of Conopco, Inc., priority 2000, dated 2003).

Converted amounts (≈) assume the structure as drawn. Where two headings read alike, the source gives them in different places.

What all share (assay type): cell-based
Test [1] deals with yeast Saccharomyces cerevisiae X2180-1B. As to the kind of experiment: Ready to Drink tea experiments, yeast growth after heat + pasteurisation adjunct. The following applies: 0-200 ppm, OD 600 nm at 14 days; for effect of heat+pasteurisation adjunct on yeast growth: Ready to Drink tea 0.14% tea pH 3.4, held at temperature 2 minutes; for effect of pasteurisation adjunct at low temperature on yeast growth: Ready to Drink tea 0.14% tea pH 3.4, low temperature. As for the experimental part:
Rows of 30 ml tubes containing 10 ml RTD tea, pH 3.4, were equilibrated at the required temperature for 7 minutes in a water bath, before inoculation with 10^4 cells/ml of the yeast Saccharomyces cerevisiae […]-1B. Tubes were held at temperature for 2 minutes before being cooled rapidly in cold water for 5 minutes. Tubes were then incubated for 14 days at 25° C. to allow surviving yeasts to grow out. At 14 days growth was measured by optical density at 600 nm in x11 diluted samples. […] Rows of 30 ml tubes containing 10 ml RTD tea, pH 3.4, were equilibrated at the required temperature for 7 minutes in a water bath, before inoculation with 10^4 cells/ml of the yeast Saccharomyces cerevisiae […]-1B. Tubes were held at temperature for 2 minutes before being cooled rapidly in cold water for 5 minutes. Tubes were then incubated for 14 days at 25° C. to allow surviving yeasts to grow out. At 14 days growth was measured by optical density at 600 nm in x11 diluted samples. […] Rows of 30 ml tubes containing 10 ml RTD tea, pH 3.4, were equilibrated at the required temperature for 7 minutes in a water bath, before inoculation with 10^4 cells/ml of the yeast Saccharomyces cerevisiae […]-1B. Tubes were held at temperature for 2 minutes before being cooled rapidly in cold water for 5 minutes. Tubes were then incubated for 14 days at 25° C. to allow surviving yeasts to grow out. At 14 days growth was measured by optical density at 600 nm in x11 diluted samples. […] Rows of 30 ml tubes containing 10 ml RTD tea, pH 3.4, were equilibrated at the required temperature for 7 minutes in a water bath, before inoculation with 10^4 cells/ml of the yeast Saccharomyces cerevisiae […]-1B. Tubes were held at temperature for 2 minutes before being cooled rapidly in cold water for 5 minutes. Tubes were then incubated for 14 days at 25° C. to allow surviving yeasts to grow out. At 14 days growth was measured by optical density at 600 nm in x11 diluted samples. […] Rows of 30 ml tubes containing 10 ml RTD tea, pH 3.4, were equilibrated at the required temperature for 7 minutes in a water bath, before inoculation with 10^4 cells/ml of the yeast Saccharomyces cerevisiae […]-1B. Tubes were held at temperature for 2 minutes before being cooled rapidly in cold water for 5 minutes. Tubes were then incubated for 14 days at 25° C. to allow surviving yeasts to grow out. At 14 days growth was measured by optical density at 600 nm in x11 diluted samples. […] Rows of 30 ml tubes containing 10 ml RTD tea, pH 3.4, were equilibrated at the required temperature for 7 minutes in a water bath, before inoculation with 10^4 cells/ml of the yeast Saccharomyces cerevisiae […]-1B. Tubes were held at temperature for 2 minutes before being cooled rapidly in cold water for 5 minutes. Tubes were then incubated for 14 days at 25° C. to allow surviving yeasts to grow out. At 14 days growth was measured by optical density at 600 nm in x11 diluted samples. […] Rows of 30 ml tubes containing 10 ml RTD tea, pH 3.4, were equilibrated at the required temperature for 7 minutes in a water bath, before inoculation with 10^4 cells/ml of the yeast Saccharomyces cerevisiae […]-1B. Tubes were held at temperature for 2 minutes before being cooled rapidly in cold water for 5 minutes. Tubes were then incubated for 14 days at 25° C. to allow surviving yeasts to grow out. At 14 days growth was measured by optical density at 600 nm in x11 diluted samples. […] Rows of 30 ml tubes containing 10 ml RTD tea, pH 3.4, were equilibrated at the required temperature for 7 minutes in a water bath, before inoculation with 10^4 cells/ml of the yeast Saccharomyces cerevisiae […]-1B. Tubes were held at temperature for 2 minutes before being cooled rapidly in cold water for 5 minutes. Tubes were then incubated for 14 days at 25° C. to allow surviving yeasts to grow out. At 14 days growth was measured by optical density at […] in x11 diluted samples.

Test [2] deals with bacteria, Gluconobacter sp. 222. As to the kind of experiment: Bacteria experiments, growth after heat + pasteurisation adjunct. To be noted: 0-100 ppm, growth measured visually at 14 days. The method, then:
Rows of 30 ml tubes containing 10 ml soft drink, pH 3.4, were equilibrated at the required temperature for 7 minutes in a water bath, before inoculation with 10^4 cells/ml of the bacteria, Gluconobacter sp. 222. Tubes were held at temperature for 2 minutes before being cooled rapidly in cold water for 5 minutes. Tubes were then incubated for 14 days at 25° C. to allow surviving bacteria to grow out. At 14 days growth was measured visually.

Test [3] concerns yeast Saccharomyces cerevisiae X2180-1B. As to the kind of experiment: Fungicidal activity / MIC at 50° C. versus 30° C., yeast survival in YEPD broth pH 3.4. The following applies: for MIC: Saccharomyces cerevisiae, read-out: MIC50; for Importance: rating as pasteurisation adjunct. The method, then: In the table the minimum inhibitory concentration (MIC) is given for each compound as well as the molecular weight (M.W.), the logPoct and a rating of its importance. […] The logPoct, that is the logarithm of the partition coefficient of the relevant compound in octanol and thus a measure of its […], was determined using […]™ software from the CHEMOFFICE ULRA ENHANCED 2000™ software package (version 5.5) that is commercially available from CambridgeSoft.
(§1) YEPD contained glucose, 20 g/l, peptone 20 g/l and yeast extract 10 g/l. Rows of 30 ml tubes containing 10 ml YEPD, pH 3.4, were equilibrated at the required temperature for 7 minutes in a water bath, before inoculation with 10^4 cells/ml of the yeast Saccharomyces cerevisiae X2180-1B. Tubes were held at temperature for 10 minutes before being cooled rapidly in cold water for 5 minutes. Tubes were then incubated for 48 hours at 25° C. to allow surviving yeasts to grow out, and form discrete colonies.
as §1, §1, §1

Where [4] appears, read: minimum inhibitory concentration, 50° C.
Setting [5] is: minimum inhibitory concentration, 50° C., given as ppm.

Regarding `CCCCCCCCCCOC(C)=O` [Decyl acetate], in test [1], the “effect of heat+pasteurisation adjunct on yeast growth” value is “remarkable combined synergistic effect” and the “effect of pasteurisation adjunct at low temperature on yeast growth” value (shortened to “effect … at low temperature on yeast growth”) is on record as “little effect”. The “effect of heat+pasteurisation adjunct on bacteria” value in test [2] (Ready to Drink tea or synthetic soft drink pH 3.4, 2 minutes at temperature) is on record as “remarkable combined synergistic effect”. In addition, the “effect of pasteurisation adjunct at low temperature on growth” value in test [2] (Ready to Drink tea or synthetic soft drink pH 3.4, low temperature) is reported as “little effect”. The “fungicidal activity at 30° C.” value in test [3] (30° C.) is recorded as “no fungicidal activity”. Further, the “fungicidal activity when heated to 50° C.” value in test [3] (50° C.) is on record as “significant fungicidal activity”. Moreover, in test [3] (setting [4]), the MIC was determined as 1000 µM. Moreover, in test [3], the Importance entry was “High (High effects compounds, most preferred, generally showed at least a 5 fold decrease in MIC, minimum inhibitory concentration at 50 °C compared with 30° C.)”.

Take `CC(=O)CC/C=C(\C)CCC=C(C)C` [Geranylacetone]: in test [1], the “effect of heat+pasteurisation adjunct on yeast growth” value is on record as “remarkable combined synergistic effect” and the “effect … at low temperature on yeast growth” value is on record as “little effect”. In addition, the MIC in test [3] (setting [4]) was 500 µM (≈ 97.2 µg/mL). Also, in test [3], the Importance result is “High (High effects compounds, most preferred, generally showed at least a 5 fold decrease in MIC, minimum inhibitory concentration at 50 °C compared with 30° C.)”.

With `CCCCCCCCCCCCO` [Lauric alcohol], in test [1], the “effect of heat+pasteurisation adjunct on yeast growth” value was “remarkable combined synergistic effect” and the “effect … at low temperature on yeast growth” value was “little effect”. The same compound displayed an MIC50 in test [3] (setting [4]) of 0.1 mM (≈ 18.6 µg/mL). The compound further yielded an MIC50 in test [3] (setting [5]) of 18.6 ppm. In addition, the Importance result in test [3] is “High (High effects compounds, most preferred, generally showed at least a 5 fold decrease in MIC, minimum inhibitory concentration at 50 °C compared with 30° C.)”.

As for `CC(=O)OC/C=C(\C)CCC=C(C)C` [Geranyl acetate], in test [1], the “effect of heat+pasteurisation adjunct on yeast growth” value is “remarkable combined synergistic effect” and the “effect … at low temperature on yeast growth” value is “little effect”. Besides, the MIC in test [3] (setting [4]) worked out at 1000 µM. Moreover, the Importance entry in test [3] was “High (High effects compounds, most preferred, generally showed at least a 5 fold decrease in MIC, minimum inhibitory concentration at 50 °C compared with 30° C.)”.

On to `CCCCCCCC=CC(=O)OCC` [Ethyl 2-decenoate], for which, in test [1], the “effect of heat+pasteurisation adjunct on yeast growth” value is on record as “remarkable combined synergistic effect” and the “effect … at low temperature on yeast growth” value is listed as “little effect”. In test [3] (setting [4]), the MIC was 1000 µM (≈ 198 µg/mL). For the same compound, the Importance entry in test [3] was “High (High effects compounds, most preferred, generally showed at least a 5 fold decrease in MIC, minimum inhibitory concentration at 50 °C compared with 30° C.)”.

Turning to `CCCCCCCCCCCC=O` [Lauric aldehyde], the “effect of heat+pasteurisation adjunct on yeast growth” value in test [1] is on record as “remarkable combined synergistic effect”. Further, the “effect … at low temperature on yeast growth” value in test [1] is recorded as “little effect”. The MIC50 in test [3] (setting [4]) came to 0.2 mM (≈ 36.9 µg/mL); in test [3] (setting [5]), 36 ppm. The Importance entry in test [3] was “High (High effects compounds, most preferred, generally showed at least a 5 fold decrease in MIC, minimum inhibitory concentration at 50 °C compared with 30° C.)”.

Consider `CCCCCCCCCCOC(=O)CCC` [Decyl butyrate], for which, in test [3] (setting [4]), the MIC is 70000 µM (≈ 16000 µg/mL). Also, in test [3], the Importance entry is “Low”.

Consider `CCCCCCCCC(=O)OCC` [Ethyl nonanoate], for which the MIC in test [3] (setting [4]) was 10000 µM (≈ 1860 µg/mL). For the same compound, in test [3], the Importance entry was “High (High effects compounds, most preferred, generally showed at least a 5 fold decrease in MIC, minimum inhibitory concentration at 50 °C compared with 30° C.)”.

With `CCCCCCCOC(=O)CCC` [Heptyl butyrate], the MIC in test [3] (setting [4]) amounted to 2000 µM (≈ 373 µg/mL). Besides, the Importance result in test [3] is “High (High effects compounds, most preferred, generally showed at least a 5 fold decrease in MIC, minimum inhibitory concentration at 50 °C compared with 30° C.)”.

As for `CCCCCCCCCCCC(=O)OCCC(C)C` [Isoamyl laurate], in test [3], the Importance result is reported as “Low”.

For the compound `O=C1CCCCCCCCCCCCCCO1` [w-Pentadecalactone], the MIC50 in test [3] (setting [4]) was 60 mM (≈ 14400 µg/mL). In test [3], the Importance entry was “Low”.

For the compound `CCCCCCCCCCC(=O)OCC` [Ethyl undecanoate], the MIC in test [3] (setting [4]) is 50000 µM (≈ 10700 µg/mL). Besides, the Importance entry in test [3] is “Mod”.

For the compound `CCCCCCCCCCCC(=O)OCCCC` [Butyl laurate], in test [3] (setting [4]), the MIC was 100000 µM (≈ 25600 µg/mL). For the same compound, the Importance entry in test [3] is “Low”.

Regarding `CCCCCCCCC(=O)OC` [Methyl nonanoate], in test [3] (setting [4]), the MIC was found to be 2000 µM (≈ 345 µg/mL). Further, the Importance result in test [3] is “High (High effects compounds, most preferred, generally showed at least a 5 fold decrease in MIC, minimum inhibitory concentration at 50 °C compared with 30° C.)”.

With `CCCC(=O)OC/C=C(\C)CCC=C(C)C` [Geranyl butyrate], the MIC in test [3] (setting [4]) was 40000 µM (≈ 8970 µg/mL). The Importance entry in test [3] was “High (High effects compounds, most preferred, generally showed at least a 5 fold decrease in MIC, minimum inhibitory concentration at 50 °C compared with 30° C.)”.

Take `CC(C)C(=O)OCCOc1ccccc1` [2-Phenoxylethyl isobutyrate]: in test [3], the MIC came out at 100 µM (≈ 20.8 µg/mL) and the Importance entry is “High (High effects compounds, most preferred, generally showed at least a 5 fold decrease in MIC, minimum inhibitory concentration at 50 °C compared with 30° C.)”.

With `C=CC(C)(CCC=C(C)C)OC(=O)CC` (stereo not drawn) [Linalyl propionate], in test [3] (setting [4]), the MIC was 20000 µM (≈ 4210 µg/mL). The Importance entry in test [3] is listed as “Mod”.

`CC(C)=CCC/C(C)=C\COC(=O)C(C)C` [Neryl isobutyrate]: in test [3] (setting [4]), the MIC was 30000 µM (≈ 6730 µg/mL). Further, in test [3], the Importance result is “High (High effects compounds, most preferred, generally showed at least a 5 fold decrease in MIC, minimum inhibitory concentration at 50 °C compared with 30° C.)”.

The compound `C=C1CC/C=C(\C)CC[C@@H]2[C@@H]1CC2(C)C` [β-Caryophylene] returned an MIC50 in test [3] (setting [4]) of 70 mM (≈ 14300 µg/mL). In addition, the Importance result in test [3] is listed as “Low”.

Consider `CC(=O)OC1CC2CCC1(C)C2(C)C` (stereo not drawn) [Bornyl acetate], for which the MIC in test [3] (setting [4]) amounted to 2000 µM. Further, in test [3], the Importance result is “Low”.
